Source: PubChem BioAssay AID248 (DTP/NCI, 2004)
Values joined by “and” are separate entries in the source; they are usually repeats but may differ in a detail not shown here. Identical values can stand only once. Inconclusive results and toxic doses are left out. No stated cut-off is given here; in the data, active means T/C of 150% or more; inactive means T/C below 125%.

Tested on: L1210 leukemia ip in BDF1 mice, survival T/C
Assay: NCI In Vivo Anticancer Drug Screen. Data for tumor model L1210 Leukemia (intraperitoneal) in B6D2F1 (BDF1) mice
Settings: endpoint: mean survival time, higher = longer survival
Procedure, shortened: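 Each compound was tested against a transplantable tumor grown in mice. The endpoint was survival, with treated animals benchmarked against vehicle controls as a simple ratio.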

[1] = dose: 25.0 mg/kg/injection, schedule: Q01DX009 (ip), vehicle: Klucel (hydroxypropylcellulose) (HPC)
[2] = dose: 25.0 mg/kg/injection, schedule: Q04DX003 (ip), vehicle: Klucel (hydroxypropylcellulose) (HPC)
[3] = dose: 50.0 mg/kg/injection, schedule: Q01DX009 (ip), vehicle: Klucel (hydroxypropylcellulose) (HPC)
[4] = dose: 50.0 mg/kg/injection, schedule: Q04DX003 (ip), vehicle: Klucel (hydroxypropylcellulose) (HPC)
[5] = dose: 100.0 mg/kg/injection, schedule: Q01DX009 (ip), vehicle: Klucel (hydroxypropylcellulose) (HPC)
[6] = dose: 100.0 mg/kg/injection, schedule: Q04DX003 (ip), vehicle: Klucel (hydroxypropylcellulose) (HPC)
[7] = dose: 100.0 mg/kg/injection, schedule: Q01DX009 (ip), vehicle: saline with Tween-80
[8] = dose: 100.0 mg/kg/injection, schedule: Q04DX003 (ip), vehicle: saline with Tween-80
[9] = dose: 200.0 mg/kg/injection, schedule: Q01DX009 (ip), vehicle: saline with Tween-80
[10] = dose: 200.0 mg/kg/injection, schedule: Q04DX003 (ip), vehicle: saline with Tween-80
[11] = dose: 400.0 mg/kg/injection, schedule: Q04DX003 (ip), vehicle: saline with Tween-80
[12] = dose: 50.0 mg/kg/injection, schedule: Q01DX001 (ip), vehicle: saline
[13] = dose: 100.0 mg/kg/injection, schedule: Q01DX001 (ip), vehicle: saline
[14] = dose: 100.0 mg/kg/injection, schedule: Q04DX002 (ip), vehicle: saline with Tween-80
[15] = dose: 200.0 mg/kg/injection, schedule: Q04DX002 (ip), vehicle: saline with Tween-80
[16] = dose: 400.0 mg/kg/injection, schedule: Q04DX002 (ip), vehicle: saline with Tween-80
[17] = dose: 200.0 mg/kg/injection, schedule: Q01DX001 (ip), vehicle: saline
[18] = dose: 400.0 mg/kg/injection, schedule: Q01DX001 (ip), vehicle: saline
[19] = dose: 100.0 mg/kg/injection, schedule: Q01DX001 (ip), vehicle: saline with Tween-80
[20] = dose: 200.0 mg/kg/injection, schedule: Q01DX001 (ip), vehicle: saline with Tween-80

Measured: T/C

C/C(=N\[N+](C)(C)C)c1ccc2ccccc2c1
inactive: [1] 101 % of control | [2] 101 % of control | [3] 100 % of control | [4] 105 % of control | [5] 90 % of control | [6] 95 % of control and 105 % of control

O=C1Nc2ccccc2/C1=N/N=C/c1cc(Cl)cc(Cl)c1O
inactive: [7] 90 % of control | [8] 90 % of control | [9] 92 % of control | [10] 90 % of control | dose: 400.0 mg/kg/injection, schedule: Q01DX009 (ip), vehicle: saline with Tween-80 91 % of control | [11] 91 % of control

CCCC(=O)N1CCCCC1C (stereo not drawn)
inactive: dose: 100.0 mg/kg/injection, schedule: Q04DX002 (ip), vehicle: Klucel (hydroxypropylcellulose) (HPC) 112 % of control | dose: 200.0 mg/kg/injection, schedule: Q04DX002 (ip), vehicle: Klucel (hydroxypropylcellulose) (HPC) 89 % of control

Cc1ccc([As](=O)(O)O)cc1F
inactive: dose: 1.56 mg/kg/injection, schedule: Q01DX009 (ip), vehicle: Klucel (hydroxypropylcellulose) (HPC) 94 % of control | dose: 3.13 mg/kg/injection, schedule: Q01DX009 (ip), vehicle: Klucel (hydroxypropylcellulose) (HPC) 94 % of control | dose: 6.25 mg/kg/injection, schedule: Q01DX009 (ip), vehicle: Klucel (hydroxypropylcellulose) (HPC) 88 % of control

CCCNCCCSCc1ccccc1
inactive: [12] 111 % of control | [13] 103 % of control

CCCCC(CC)NC(=O)c1ccc(OC)cc1 (stereo not drawn)
inactive: dose: 12.5 mg/kg/injection, schedule: Q01DX009 (ip), vehicle: Klucel (hydroxypropylcellulose) (HPC) 106 % of control | [1] 101 % of control | [2] 105 % of control | [3] 95 % of control | [4] 103 % of control | [5] 101 % of control | [6] 100 % of control | dose: 200.0 mg/kg/injection, schedule: Q04DX003 (ip), vehicle: Klucel (hydroxypropylcellulose) (HPC) 103 % of control | dose: 400.0 mg/kg/injection, schedule: Q04DX003 (ip), vehicle: Klucel (hydroxypropylcellulose) (HPC) 100 % of control

CCCCCCCCCCCCCCCCCOC(=O)CCCCCCCCCCCCC
inactive: [5] 91 % of control | [8] 90 % of control | dose: 200.0 mg/kg/injection, schedule: Q01DX009 (ip), vehicle: Klucel (hydroxypropylcellulose) (HPC) 96 % of control | [10] 88 % of control | dose: 400.0 mg/kg/injection, schedule: Q01DX009 (ip), vehicle: Klucel (hydroxypropylcellulose) (HPC) 98 % of control | [11] 92 % of control

CC(=O)Nc1ccc(S(=O)(=O)Nc2ccc(N(CCCl)CCCl)cc2)cc1
inactive: dose: 50.0 mg/kg/injection, schedule: Q04DX002 (ip), vehicle: saline with Tween-80 107 % of control | [14] 110 % of control | [15] 107 % of control | [16] 110 % of control

CC1=C(C#N)C(C)(C)c2ccccc21
inactive: [14] 110 % of control | [15] 100 % of control | [16] 100 % of control

O=C(O)C1C2C=CC(C2)C1(C(=O)O)c1ccccc1 (stereo not drawn)
inactive: dose: 100.0 mg/kg/injection, schedule: Q01DX001 (ip), vehicle: carboxymethylcellulose (CMC) 95 % of control | dose: 100.0 mg/kg/injection, schedule: Q04DX003 (ip), vehicle: carboxymethylcellulose (CMC) 98 % of control | dose: 200.0 mg/kg/injection, schedule: Q01DX001 (ip), vehicle: carboxymethylcellulose (CMC) 95 % of control | dose: 200.0 mg/kg/injection, schedule: Q04DX003 (ip), vehicle: carboxymethylcellulose (CMC) 92 % of control

[Co+3].[NH-]CC(=O)[O-].[NH-]CCN(CC[NH-])CC[NH-].[O-][Cl+3]([O-])([O-])O
inactive: [12] 103 % of control | [13] 100 % of control | [17] 103 % of control | [18] 105 % of control

C[C@]12CC[C@H]3[C@@H](CCC4=CC(=O)CC[C@@]43CO)[C@@H]1CC[C@@H]2O
inactive: dose: 50.0 mg/kg/injection, schedule: Q01DX001 (sc), vehicle: steriod suspending solution 102 % of control | dose: 100.0 mg/kg/injection, schedule: Q01DX001 (sc), vehicle: steriod suspending solution 98 % of control | dose: 200.0 mg/kg/injection, schedule: Q01DX001 (sc), vehicle: steriod suspending solution 98 % of control | dose: 400.0 mg/kg/injection, schedule: Q01DX001 (sc), vehicle: steriod suspending solution 102 % of control

CC12CCC(Cl)CC1=CCC1C2CCC2(C)c3nc(N)ncc3CC12 (stereo not drawn)
inactive: dose: 100.0 mg/kg/injection, schedule: Q04DX003 (sc), vehicle: gum acacia 101 % of control | dose: 200.0 mg/kg/injection, schedule: Q04DX003 (sc), vehicle: gum acacia 92 % of control | dose: 400.0 mg/kg/injection, schedule: Q04DX003 (sc), vehicle: gum acacia 103 % of control

CCc1cc(C(=O)NC(CCC(=O)O)C(=O)O)ccc1NCc1cnc2nc(N)[nH]c(=O)c2n1 (stereo not drawn)
inactive: dose: 50.0 mg/kg/injection, schedule: Q01DX001 (ip), vehicle: saline with Tween-80 106 % of control | [19] 100 % of control | [20] 100 % of control

O=C(Nc1ccccc1C(=O)c1ccccc1)c1ccc(Cl)cc1Cl
inactive: dose: 50.0 mg/kg/injection, schedule: Q01DX009 (ip), vehicle: saline with Tween-80 105 % of control | [7] 94 % of control | [9] 87 % of control

CCOC(=O)CCCc1ccc(N/N=N/c2nc[nH]c2C(N)=O)cc1
inactive: dose: 25.0 mg/kg/injection, schedule: Q01DX Z (ip), vehicle: carboxymethylcellulose (CMC) 94 % of control | dose: 50.0 mg/kg/injection, schedule: Q01DX Z (ip), vehicle: carboxymethylcellulose (CMC) 88 % of control | dose: 75.0 mg/kg/injection, schedule: Q01DX Z (ip), vehicle: carboxymethylcellulose (CMC) 88 % of control | dose: 100.0 mg/kg/injection, schedule: Q01DX Z (ip), vehicle: carboxymethylcellulose (CMC) 103 % of control | dose: 200.0 mg/kg/injection, schedule: Q01DX Z (ip), vehicle: carboxymethylcellulose (CMC) 88 % of control

CC12CC(c3ccccc3)C(C)(C(c3ccccc3)=C1c1ccccc1)C2(C)O (stereo not drawn)
inactive: [19] 93 % of control | [20] 100 % of control | dose: 400.0 mg/kg/injection, schedule: Q01DX001 (ip), vehicle: saline with Tween-80 88 % of control

c1cc2nnc3cccc4nnc(c1)c2c34
inactive: [13] 102 % of control | [17] 107 % of control | [18] 103 % of control

C=CC(=C)CCC=C(C)C
inactive: dose: 25.0 mg/kg/injection, schedule: Q04DX003 (ip), vehicle: saline 101 % of control | dose: 50.0 mg/kg/injection, schedule: Q04DX003 (ip), vehicle: saline 101 % of control | dose: 100.0 mg/kg/injection, schedule: Q04DX003 (ip), vehicle: saline 97 % of control | dose: 200.0 mg/kg/injection, schedule: Q04DX003 (ip), vehicle: saline 87 % of control | dose: 400.0 mg/kg/injection, schedule: Q04DX003 (ip), vehicle: saline 86 % of control
